≈ marks a conversion by molar mass, not a printed value.
Assays:
[1] = system: M. avium (MAC); assay: Broth dilution MIC against Mycobacterium avium complex isolates; assay type: cell-based; conditions: 168 h
Description: (§1) Testing of new drugs for activity against Mycobacterial infections is carried out in vitro and in vivo in well defined laboratory procedures which have been widely published. The method used to test for biological activity against growing Mycobacterium avium complex (MAC), Mycobacterium tuberculosis (MTB) and Mycobacterium kanasii (MK) are described by A. H. Gonzalez et al. in J. Antimicrob. Chemother. 1989, 24:19-22; S. Majumder and M. H. Cynamon, Amer. Soc. for Microbiology Mtgs, U-4, May 1992, abstract.
(§2) Activity in vitro was determined against clinical isolates of MAC, MTB and MK using a broth dilution method. Mycobacteria were grown for several days in 7H10 broth, ph 6.6, with 10% OADC enrichment and 0.05% Tween 80. Serial two-fold dilutions of antimicrobial drugs were prepared in 7H10 broth at 128 μg/ml and less. Cultures containing a final concentration of approximately 2.5×10^4 to 6.3×10^5 CFU/ml were incubated on a rotary shaker at 37° C. for 7 days and read where the minimum inhibitory concentration was defined as the MIC at the lowest concentration without visual turbidity. JPC7766 in these studies was compared to known active antimicrobial drugs Proguanil (PG), Cycloguanil (CG), Sulfamethazine (SM) and/or Dapsone (DDS).

[2] = system: M. kanasii (MK); assay: Broth dilution MIC against M. kanasii isolate; assay type: cell-based; conditions: 168 h
Description: as §1, §2

[3] = system: M. tuberculosis (MTB); assay: Broth dilution MIC against M. tuberculosis isolates; assay type: cell-based; conditions: Mycobacterium tuberculosis, 168 h
Description: as §1, §2

[4] = system: Pneumocystis carinii; assay: Prevention of Pneumocystis carinii infection in immunosuppressed rats; assay type: in vivo; conditions: 125 mg/kg daily
Description: In this method rats are immunosuppressed with high doses of glucocorticosteroids while being protected from bacterial infection by concurrent administration of the antibiotic tetracycline. In a standard evaluation animals are immunosuppressed with steroids and various doses of test compounds are administered for six weeks during which time unprotected animals will develop pneumocystis pneumonitis. The percentage of animals free of the disease represents the effectiveness of a selected dose of test drug.
A customary method to produce pneumocystis in the animals is to administer 2 mg of dexamethasone and 50 mg tetracycline hydrochloride per liter of drinking water. The test compounds are integrated in the food.

[5] = system: Pneumocystis carinii; conditions: 125 mg/kg; cited from earlier work
[6] = system: P. berghei; assay: P. berghei infection in mice, injected vs. oral doses, 50% cure (Table 2)
Text: Comparative tests in vivo in mice against Plasmodium have been carried out. […] Premature deaths of animals (earlier than five days post infection) are considered as indications of toxicity.
These tests systems are described in detail in publications by L. Rane and D. S. Rane, 9th Int. […] Trop. Med. Malaria. (1973) 1:281 (#406) and (2) T. S. Osdedne, P. B. Russell and L. Rane, J. Med. Chem. 1967. 10:431.
In this methodology, groups of 5 or 10 mice are infected with a standard inoculum of a blood-induced P. berghei infection and are treated with a single subcutaneous dose ([…]) of test drug suspended in peanut oil or a single oral dose of test drug suspended in hexamethyl cellulose and Tween. The animals are then observed for a maximum of thirty days. […] Animals surviving for thirty days are considered cured.

## CC1(C)N=C(N)N=C(N)N1c1ccc(Cl)cc1 [Cycloguanil]
[1]; isolate MAC LPR
  MIC: > 128 µg/mL
[2]
  MIC: 64 µg/mL (≈ 254 µM)
[3]; isolate MTB 311
  MIC: 64 µg/mL (≈ 254 µM)
[3]; H37RV, isolate MTB H37 Rv
  MIC: 64 µg/mL (≈ 254 µM)

## Nc1ccc(S(=O)(=O)c2ccc(N)cc2)cc1 [Dapsone]
[4]
  Efficacy: 100%
[4]; infected/treated
  # infected: 0/10
[1]; isolate MAC 101
  MIC: 16 µg/mL (≈ 64.4 µM)
[1]; isolate MAC FAR
  MIC: 64 µg/mL (≈ 258 µM)
[1]; isolate MAC LPR
  MIC: 32 µg/mL (≈ 129 µM)
[5]
  protection from pneumocystis: fully effective

## [H]/N=C(\N/C(=N/[H])Nc1ccc(Cl)cc1)NC(C)C [Proguanil]
[6]; oral (PO), @ >160 mg/kg
  Toxicity: Toxic
[6]; single oral dose
  50% cures; oral PO ED-50: No Cures
[6]; subcutaneous, in peanut oil
  50% cure; injected SQ ED-50: NO CURES
[1]; isolate MAC 101
  MIC: > 128 µg/mL
[1]; isolate MAC FAR
  MIC: 64 µg/mL (≈ 252 µM)
[1]; isolate MAC LPR
  MIC: 128 µg/mL (≈ 504 µM)

## Cc1cc(C)nc(NS(=O)(=O)c2ccc(N)cc2)n1 [Sulfamethazine]
[1]; isolate MAC 101
  MIC: > 128 µg/mL
[1]; isolate MAC FAR
  MIC: 16 µg/mL (≈ 57.5 µM)
[1]; isolate MAC LPR
  MIC: 32 µg/mL (≈ 115 µM)
[2]
  MIC: 64 µg/mL (≈ 230 µM)
[3]; isolate MTB 311
  MIC: 64 µg/mL (≈ 230 µM)
[3]; H37RV, isolate MTB H37 Rv
  MIC: 64 µg/mL (≈ 230 µM)

## CC1(C)N=C(N)N=C(N)N1OCCCOc1cc(Cl)c(Cl)cc1Cl [WR99210]
[6]; Plasmodium berghei, in Mus musculus, sc, read-out: 50% cure, injected SQ ED-50
  ED50: 245 mg/kg
[6]; oral (PO), @ 640 mg/kg
  Cures: No Cures

From patent publication US5322858A, “N,N'-substituted imidodicarbonimidic diamides derived from hydroxylamines” (Jacobus Pharmaceutical Co. Inc., priority 1992, dated 1994)
